Experiments:
murine TLR9 = molecular target: T1, murine TLR9 (Mus musculus, UniProt Q9EQU3); test: TLR9 signaling induction, NFκB-luciferase reporter in HEK 293 cells stably transfected with murine TLR9; assay type: cell-based; settings: 16 h, HEK 293 murine TLR9 NFκB-luciferase
T1 construct: expressed in transfected cells; host or cells: HEK 293 cells, stably transfected, also carrying a six-fold NFκB-luciferase reporter plasmid
T1 sequence (Q9EQU3 26-1032): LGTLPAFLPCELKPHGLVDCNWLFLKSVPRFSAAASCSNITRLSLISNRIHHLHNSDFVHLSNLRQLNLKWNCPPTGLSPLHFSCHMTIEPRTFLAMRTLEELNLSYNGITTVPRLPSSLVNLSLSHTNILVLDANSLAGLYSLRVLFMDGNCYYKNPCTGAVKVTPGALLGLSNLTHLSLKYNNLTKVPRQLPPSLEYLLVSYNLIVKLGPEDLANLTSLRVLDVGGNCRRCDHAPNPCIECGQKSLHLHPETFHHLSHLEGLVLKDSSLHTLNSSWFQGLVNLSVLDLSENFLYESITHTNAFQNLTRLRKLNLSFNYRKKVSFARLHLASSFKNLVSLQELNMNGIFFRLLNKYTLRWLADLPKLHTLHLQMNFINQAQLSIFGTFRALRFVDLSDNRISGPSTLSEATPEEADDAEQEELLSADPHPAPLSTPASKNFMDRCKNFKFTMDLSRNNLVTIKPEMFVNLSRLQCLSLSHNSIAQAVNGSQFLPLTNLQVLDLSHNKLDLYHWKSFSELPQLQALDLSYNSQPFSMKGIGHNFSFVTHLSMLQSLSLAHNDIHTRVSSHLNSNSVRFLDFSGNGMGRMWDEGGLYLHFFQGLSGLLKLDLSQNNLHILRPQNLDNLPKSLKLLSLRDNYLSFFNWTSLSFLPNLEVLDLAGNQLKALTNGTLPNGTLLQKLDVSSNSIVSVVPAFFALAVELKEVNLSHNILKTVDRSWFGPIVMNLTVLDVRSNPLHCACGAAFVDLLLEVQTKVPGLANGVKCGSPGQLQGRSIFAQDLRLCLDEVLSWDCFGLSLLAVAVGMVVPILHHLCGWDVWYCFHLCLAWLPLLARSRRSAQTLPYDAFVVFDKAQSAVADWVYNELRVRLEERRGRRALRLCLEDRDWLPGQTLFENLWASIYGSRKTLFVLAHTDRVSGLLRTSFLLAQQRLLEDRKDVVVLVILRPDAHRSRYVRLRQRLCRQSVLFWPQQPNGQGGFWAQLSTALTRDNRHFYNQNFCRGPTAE
Protocol: FIG. 2 is a graph depicting fold induction of TLR9 signaling in vitro, as measured using 293 cells stably transformed with murine TLR9 and a NF-κB-luciferase reporter construct, following 16 hour incubation with indicated concentrations of hexamer CpG motif GACGTT alone (20321), CpG motif GACGTT in the context of a 20-mer CpG-ODN(ODN 5890; SEQ ID NO:5), or CpG motif GACGTT in the context of flanking abasic sequences in 20-mer 20307 (poly-D) or in 20-mer 20566 (poly-C3 spacer). EC50 values are shown in the graph legend.
Following published methods, HEK 293 cells were stably transfected with a murine TLR9 expression vector and a six-fold NFκB-luciferase reporter plasmid. Cells were plated on 96-well plates at 1.5×10^4 cells/well and allowed to attach overnight. The cells were then treated for sixteen hours with individual test compounds listed below at concentrations ranging between 10^−9 M and 10^−5 M.
Test agents were as follows: ODN 20321 (GACGTT); ODN 5890 (SEQ ID NO:5); 20307 ([…], where each D represents an abasic deoxyribonucleotide unit); and 20566 (JJJJJGACGTTJJJJJJJJJ, where each J represents a C3 spacer derived from propane-1,3-diol).
Each data point was done in duplicate. After 16 h stimulation the supernatant was removed and the cells were treated with lysis buffer and stored at −80° C. until luciferase measurement. Values are given as fold NFκB activation compared with non-stimulated cells.

[1] = test system: RAW 264.7 murine macrophage cell line; test: In vitro uptake of Cy3-labeled oligomers by RAW 264.7 cells (FACS mean fluorescence); assay type: cell-based; settings: Cy3-labeled 20-mer, 0.5 to 5.0 μM, 1 hr at 37° C.
Protocol: FIG. 1 is a bar graph depicting uptake by RAW 264.7 cells of Cy3-labeled 20-mer abasic oligonucleotides (poly-D or poly-C3) and of 20-mer ODN 5890 (SEQ ID NO:5). No data is shown for poly-C3 at 4.0 or 5.0 μM.
The 20-mer ODN 5890 ([…]; SEQ ID NO:5), a 20-mer poly-abasic (i.e., poly-D) or a 20-mer poly-C3 were synthesized with a fluorescence tag Cy3. The murine macrophage cell line, RAW 264.7 (American Type Culture Collection, Manassas, Va.), was incubated with various concentrations of test oligomer (0.5 to 5.0 μM) for 1 hr at 37° C. The cells were then washed and FACS analyzed for oligomer uptake by monitoring mean fluorescence. […] No data is shown for poly-C3 at concentrations of 4.0 or 5.0 μM.

DDDDDGACGTTDDDDDDDDD [compound 20307]
TLR9 signaling compared with hexamer CpG motif alone (20321), in words (murine TLR9): induced significantly more TLR9 signaling

JJJJJGACGTTJJJJJJJJJ [compound 20566]
TLR9 signaling compared with hexamer CpG motif alone (20321), in words (murine TLR9): induced significantly more TLR9 signaling

TCCATGACGTTTTTGATGTT (Cy3 fluorescent tag attached, position not given here) [ODN 5890, Cy3-tagged in the uptake test]
oligomer uptake (comparison in words) [1]: up taken to a greater extent than either abasic oligonucleotide
TLR9 signaling compared with hexamer CpG motif alone (20321), in words (murine TLR9): induced significantly more TLR9 signaling

Source: patent US20080113929A1, “Abasic Oligonucleotide as Carrier Platform for Antigen and Immunostimulatory Agonist and Antagonist” (Coley Pharmaceutical GmbH, priority 2004, published 2008)
